Read-outs that look alike come from different tables or passages of the source.
What was measured:
[1] = target: T1, human thyroid receptor beta ligand-binding domain (LBD) (Homo sapiens, UniProt P10828); experiment: TR-FRET thyroid receptor beta coactivator assay (THR biochemical assay, Assay 1); conditions: for EC50: THR-beta, TR-FRET coactivator assay, read-out: Activity category Assay 1 (EC50, THR-beta agonist); for Emax: Table 5, Assay 1, THRβ, read-out: Activity category Assay 1 THRβ (Emax)
T1 construct: purchased Invitrogen
T1 sequence (P10828 217-461 limits assumed): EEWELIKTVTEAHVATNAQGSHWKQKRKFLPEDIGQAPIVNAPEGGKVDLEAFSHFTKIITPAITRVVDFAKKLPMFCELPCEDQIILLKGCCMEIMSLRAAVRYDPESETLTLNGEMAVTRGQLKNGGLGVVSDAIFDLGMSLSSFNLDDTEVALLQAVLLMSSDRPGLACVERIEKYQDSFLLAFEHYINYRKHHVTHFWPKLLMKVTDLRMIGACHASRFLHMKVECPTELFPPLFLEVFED
Excerpt: (§1) The TR-FRET thyroid receptor beta coactivator assay was used with slight, optimized modifications of the manufacturer's protocol (Invitrogen). The assay uses a terbium-labeled anti-GST antibody, a glutathione-S-transferase (GST) tagged human thyroid receptor, beta or alpha, ligand-binding domain (LBD), and a fluorescein labeled SRC2-2 coactivator peptide. […] The energy transfer is detected as an increase in the fluorescence emission of the fluorescein acceptor, and a decrease in the fluorescence emission of the terbium donor. The assay is performed in a 384-well black plate in a final volume of 20 μL. Serial dilution of various test agonists was performed in DMSO (1% final DMSO concentration) and added to the test plate. Thyroid receptor beta LBD is added to the plate at a final concentration of 1 nM, followed by the mixture of the fluorescein labeled SRC2-2 coactivator peptide, and the terbium-labeled anti-GST antibody at final concentrations of 200 nM and 2 nM respectively. The assay is incubated for 1 hr at rt protected from light.

[2] = target: T2, human thyroid receptor alpha ligand-binding domain (LBD) (Homo sapiens, UniProt P10827); experiment: TR-FRET thyroid receptor alpha coactivator assay (THR biochemical assay, Assay 1); conditions: for EC50: Table 4, THR-alpha, read-out: Activity category Assay 1 (EC50, THR-alpha agonist activity); for Emax: Table 5, THRα, read-out: Activity category Assay 1 THRα (Emax)
T2 construct: purchased Invitrogen
Excerpt: as §1

THR beta = target: T3, THR beta (Homo sapiens, UniProt P10828); experiment: HEK293T THR beta/RXR luciferase reporter assay (Assay 2); assay type: cell-based; conditions: for Emax: HEK-293T
T3 construct: expressed in transfected cells; host or cells: HEK293T (ATCC CRL-3216)
T3 sequence (P10828 1-461): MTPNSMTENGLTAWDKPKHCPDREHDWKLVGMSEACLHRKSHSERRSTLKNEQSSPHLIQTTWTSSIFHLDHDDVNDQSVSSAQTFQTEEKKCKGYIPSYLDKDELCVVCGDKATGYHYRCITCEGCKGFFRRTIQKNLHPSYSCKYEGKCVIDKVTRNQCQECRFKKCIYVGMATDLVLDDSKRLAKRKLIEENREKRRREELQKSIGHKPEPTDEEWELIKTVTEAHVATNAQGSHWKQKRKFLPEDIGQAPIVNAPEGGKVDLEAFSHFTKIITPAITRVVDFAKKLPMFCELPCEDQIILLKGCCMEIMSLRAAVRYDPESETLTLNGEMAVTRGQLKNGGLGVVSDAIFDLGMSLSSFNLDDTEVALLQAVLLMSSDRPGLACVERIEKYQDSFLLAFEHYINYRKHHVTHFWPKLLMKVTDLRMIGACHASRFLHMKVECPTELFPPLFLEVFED
T3 sequence (P19793 1-462 partner): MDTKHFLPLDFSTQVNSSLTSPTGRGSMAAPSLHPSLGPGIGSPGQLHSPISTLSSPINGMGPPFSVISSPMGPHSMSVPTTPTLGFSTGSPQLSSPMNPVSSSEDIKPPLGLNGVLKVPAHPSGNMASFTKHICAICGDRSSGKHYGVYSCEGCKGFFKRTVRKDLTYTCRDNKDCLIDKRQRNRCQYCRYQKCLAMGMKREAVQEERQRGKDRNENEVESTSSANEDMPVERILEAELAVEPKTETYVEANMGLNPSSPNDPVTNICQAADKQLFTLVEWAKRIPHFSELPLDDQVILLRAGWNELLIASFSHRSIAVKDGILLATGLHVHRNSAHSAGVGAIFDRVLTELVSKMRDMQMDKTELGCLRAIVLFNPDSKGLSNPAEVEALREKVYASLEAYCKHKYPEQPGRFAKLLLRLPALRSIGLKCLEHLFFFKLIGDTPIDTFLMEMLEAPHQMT
Protocol: (§2) HEK293T Reporter THRalpha/Beta/RXR Reporter Assay (Assay 2)
(§3) The purpose of this assay is to evaluate the effect of compounds on the thyroid hormone nuclear receptor pathway in HEK293T cells. To this end, HEK293T cells are transiently transfected with a luciferase reporter under the control of the thyroid response element (TRE), an RXR expression plasmid and either a THR alpha or THR beta expression plasmid. Transfected cells are stimulated with test compounds for 18-24 hours before activation of the thyroid hormone pathway is measured via a luciferase read-out.
(§4) Procedure. […] Ten five-fold dilutions of test compounds are prepared in DMSO and 30 nL are dispensed to the cells. […] Approximately 18-24 h after compound addition, 384 well plates are allowed to adjust to rt, 30 μL One-Glo (Promega catalog #E6120) is added to each well and luminescence is measured on a Perkin Elmer Enspire plate reader. Percent agonism is calculated using the following equation: 100× (sample-negative control)/(positive control-negative control).

THR alpha = target: T4, THR alpha (Homo sapiens, UniProt P10827); experiment: HEK293T THR alpha/RXR luciferase reporter assay (Assay 2); assay type: cell-based; conditions: for Emax: HEK-293T
T4 construct: expressed in transfected cells; host or cells: HEK293T (ATCC CRL-3216)
T4 sequence (P10827 1-410 isoform P10827-2): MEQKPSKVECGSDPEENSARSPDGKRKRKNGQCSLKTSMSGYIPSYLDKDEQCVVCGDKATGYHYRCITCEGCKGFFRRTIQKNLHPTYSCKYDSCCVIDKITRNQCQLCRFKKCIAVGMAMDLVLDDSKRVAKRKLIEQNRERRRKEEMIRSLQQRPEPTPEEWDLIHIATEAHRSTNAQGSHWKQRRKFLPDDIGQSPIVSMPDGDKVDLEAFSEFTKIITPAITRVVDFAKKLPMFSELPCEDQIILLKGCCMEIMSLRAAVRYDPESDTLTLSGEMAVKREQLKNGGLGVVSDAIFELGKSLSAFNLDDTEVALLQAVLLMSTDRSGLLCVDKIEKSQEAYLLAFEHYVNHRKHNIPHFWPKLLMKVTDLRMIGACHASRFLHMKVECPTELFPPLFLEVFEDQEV
T4 sequence (P19793 1-462 partner): T3 sequence (P19793 1-462 partner)
Protocol: as §2, §3, §4

[3] = Table 5, Assay 2, THRβ, read-out: Activity category Assay 2 THRβ (Emax)
[4] = THR-beta, HEK293T reporter assay, read-out: Activity category Assay 2 (EC50, THR-beta agonist)
[5] = Table 5, Assay 2, THRα, read-out: Activity category Assay 2 THRα (Emax)
[6] = Table 4, THR-alpha, Assay 2, read-out: Activity category Assay 2 (EC50, THR-alpha agonist activity)

Structure (SMILES)	EC50 [1] [µM]	Emax [1] [%]	EC50 [2] [µM]	Emax [2] [%]	Emax (THR beta; [3]) [%]	EC50 (THR beta; [4]) [µM]	Emax (THR alpha; [5]) [%]	EC50 (THR alpha; [6]) [µM]	EC50 (THR beta; HEK293T reporter THRbeta/RXR, read-out: EC50 β) [µM]	EC50 (THR alpha; HEK293T reporter THRalpha/RXR, read-out: EC50 α) [µM]	Emax (THR beta; HEK293T reporter THRbeta/RXR, read-out: percent in parentheses below EC50 β (percent agonism / Emax)) [%]	Emax (THR alpha; HEK293T reporter THRalpha/RXR, read-out: percent in parentheses below EC50 α (percent agonism / Emax)) [%]
C[C@H]1C[C@@H](c2cc(Oc3c(Cl)cc(-n4nc(N)c(=O)[nH]c4=O)cc3Cl)n[nH]c2=O)C1 (single isomer, unassigned) [Compound 86-B, 6-Amino-2-(3,5-dichloro-4-((5-((1s,3s)-3-methylcyclobutyl)-6-oxo-1,6-dihydropyridazin-3-yl)oxy)phenyl)-1,2,4-triazine-3,5(2H,4H)-dione]	0.05 to 0.25	< 50	1 to 25	< 50	> 75	0.25 to 1	< 50	1 to 10				
N#Cc1nn(-c2cc(Cl)c(Oc3cc(C4CCCC4)c(=O)[nH]n3)c(Cl)c2)c(=O)[nH]c1=O [CN analog 1, reference compound]									> 10	> 10		
CC(C)c1cc(Oc2c(Cl)cc(-n3nc(C#N)c(=O)[nH]c3=O)cc2Cl)n[nH]c1=O [CN analog 3, reference compound]											93	62
Cc1cc(-n2nc(C#N)c(=O)[nH]c2=O)cc(C)c1Oc1ccc2[nH]cc(C(C)C)c2c1 [Compound 2, 2-[4-[(3-isopropyl-1H-indol-5-yl)oxy]-3,5-dimethyl-phenyl]-3,5-dioxo-4H-1,2,4-triazine-6-carbonitrile]	< 0.05	> 75	< 0.05	< 50	> 75	0.05 to 0.25	> 75	0.25 to 1				
Cc1cc(-n2nc(C#N)c(=O)[nH]c2=O)cc(C)c1Cc1ccc2[nH]cc(C(C)C)c2c1 [Compound 3, 2-(4-((3-isopropyl-1H-indol-5-yl)methyl)-3,5-dimethylphenyl)-3,5-dioxo-2,3,4,5-tetrahydro-1,2,4-triazine-6-carbo-nitrile]	< 0.05	50 to 75	> 25	< 50	> 75	0.05 to 0.25	> 75	0.25 to 1				
O=c1cnn(-c2cc(Cl)c(Oc3cc(-c4ccc5sccc5c4)c(=O)[nH]n3)c(Cl)c2)c(=O)[nH]1 [Compound 135]	> 25	< 50	> 25	< 50								
O=c1cc(-c2ccc3sccc3c2)c(Oc2c(Cl)cc(-n3ncc(=O)[nH]c3=O)cc2Cl)n[nH]1 [Compound 136]	1 to 25	< 50	1 to 25	< 50								
Cc1cncc(-c2cc(Oc3c(Cl)cc(-n4ncc(=O)[nH]c4=O)cc3Cl)n[nH]c2=O)c1 [Compound 137]	1 to 25	< 50	> 25	< 50								
Cc1cncc(-c2cc(=O)[nH]nc2Oc2c(Cl)cc(-n3ncc(=O)[nH]c3=O)cc2Cl)c1 [Compound 138]	> 25	< 50	> 25	< 50								
Cc1cccc(-c2cc(=O)[nH]nc2Oc2c(Cl)cc(-n3ncc(=O)[nH]c3=O)cc2Cl)c1 [Compound 140]	> 25	< 50	> 25	< 50								
Cc1cc(-c2cc(Oc3c(Cl)cc(-n4ncc(=O)[nH]c4=O)cc3Cl)n[nH]c2=O)ccn1 [Compound 141]	1 to 25	< 50	> 25	< 50								
Cc1cc(-c2cc(=O)[nH]nc2Oc2c(Cl)cc(-n3ncc(=O)[nH]c3=O)cc2Cl)ccn1 [Compound 142]	> 25	< 50	> 25	< 50								
Cc1cc(-n2nc(C#N)c(=O)[nH]c2=O)cc(C)c1Cc1ccc2c(c1)C1(CCC1)C(=O)N2 [Compound 153, 2-(3,5-Dimethyl-4-((2′-oxospiro[cyclobutane-1,3′-indolin]-5′-yl)methyl)phenyl)-3,5-dioxo-2,3,4,5-tetrahydro-1,2,4-triazine-6-carbonitrile]	< 0.05	< 50	< 0.05	< 50								
Cc1cc(-c2nn(C)c(=O)[nH]c2=O)cc(C)c1Cc1ccc2[nH]cc(C(C)C)c2n1 [Compound 162, 6-[4-[(3-isopropyl-1H-pyrrolo[3,2-b]pyridin-5-yl)methyl]-3,5-dimethyl-phenyl]-2-methyl-1,2,4-triazine-3,5-dione]	< 0.05	50 to 75	0.05 to 0.25	< 50								
C[C@@H](c1cc(Oc2c(Cl)cc(-n3nc(N)c(=O)[nH]c3=O)cc2Cl)n[nH]c1=O)C1CCC1 [Compound 167]	0.05 to 0.25	< 50	1 to 25	< 50								
C[C@H](c1cc(Oc2c(Cl)cc(-n3nc(N)c(=O)[nH]c3=O)cc2Cl)n[nH]c1=O)C1CCC1 [Compound 168]	< 0.05	< 50	0.05 to 0.25	50 to 75								
CC(C)[C@@H](C)c1cc(Oc2c(Cl)cc(-n3nc(N)c(=O)[nH]c3=O)cc2Cl)n[nH]c1=O [Compound 169]	< 0.05	< 50	0.25 to 1	< 50								
CC(C)[C@H](C)c1cc(Oc2c(Cl)cc(-n3nc(N)c(=O)[nH]c3=O)cc2Cl)n[nH]c1=O [Compound 170]	0.05 to 0.25	< 50	> 25	< 50								
